Measurements reported in paper PMC7906415, “Metabolite profile of Nectandra oppositifolia Nees & Mart. and assessment of antitrypanosomal activity of bioactive compounds through efficiency analyses” (PLoS ONE, 2021).
Where two headings read alike, the source gives them in different places.

What was measured:
[1] = Cytotoxicity against mammalian cells, MTT assay (CC50); format: cell-based, murine; details: mouse
Procedure: Trypanosoma cruzi trypomastigotes (Y strain) were routinely maintained in Rhesus monkey kidney cells (LLC-MK2 –ATCC CCL 7), using RPMI-1640 medium supplemented with 2% FBS at 37°C in a 5% CO2-humidified incubator. The murine conjunctive cells (NCTC clone 929, ATCC) were maintained in RPMI-1640 medium supplemented with 10% FBS at 37°C in a 5% CO2 –humidified incubator. Peritoneal macrophages, used for the amastigote assays, were obtained by washing the peritoneal cavity of BALB/c mice with RPMI-1640 medium supplemented with 10% FBS and were kept at 37°C in a 5% CO2-humidified incubator.
The cytotoxicity assays were performed using NCTC cells-clone 929. The cells were counted, seeded (6 x 10^4 cells/well), and incubated with compounds 1–12 and 7a- 7e (200–1.56 μM—serial dilution) for 48 h at 37°C in a 5% CO2-humidified incubator. The optical density was determined using a FilterMax F5 (Molecular Devices) at 570 nm. The 50% cytotoxic concentration (CC50) values were determined by MTT assay. Selectivity index (SI) values were calculated using the ratio: CC50 against NCTC cells/EC50 against parasites form (amastigotes).
EC50 and CC50 data represent the mean of two independent representative assays tested in duplicate and were calculated using sigmoid dose-response curves with Graph–Pad Prism 6.0 software (San Diego, CA, USA).

[2] = test system: Trypanosoma cruzi intracellular amastigotes; assay: Activity against intracellular amastigotes of T. cruzi in infected peritoneal macrophages (EC50); format: cell-based, Trypanosoma cruzi (Y strain); details: for EC50: Trypanosoma cruzi, Peritoneal macrophage, in Mus musculus, read-out: EC50 ± SD; for EC50 / EC50 ± SD: 48 h; for SI (selectivity index): ratio CC50 against NCTC cells/EC50 against amastigote forms
Procedure: Trypanosoma cruzi trypomastigotes (Y strain) were routinely maintained in Rhesus monkey kidney cells (LLC-MK2 –ATCC CCL 7), using RPMI-1640 medium supplemented with 2% FBS at 37°C in a 5% CO2-humidified incubator. The murine conjunctive cells (NCTC clone 929, ATCC) were maintained in RPMI-1640 medium supplemented with 10% FBS at 37°C in a 5% CO2 –humidified incubator. Peritoneal macrophages, used for the amastigote assays, were obtained by washing the peritoneal cavity of BALB/c mice with RPMI-1640 medium supplemented with 10% FBS and were kept at 37°C in a 5% CO2-humidified incubator. To evaluate the activity against intracellular amastigotes, the peritoneal macrophages obtained from BALB/c mice were infected with trypomastigotes forms of T. cruzi. The macrophages were plated on a 16-well chamber slide (NUNC plate, Merck; 1 x 10^5/well) and incubated for 24 h at 37°C in a 5% CO2-humidified incubator. […] After 2 h of incubation at 37°C in a 5% CO2-humidified incubator, the non-internalized parasites were removed by washing with RPMI-1640 medium. Compounds 1–12 and 7a-7e were incubated by serial dilution (100–1.56 μM) with the infected macrophages (48 h at 37°C, 5% CO2) using benznidazole as the standard drug. At the end of the assay, slides were fixed with MeOH and stained with Giemsa prior to counting under a light microscope (EVOS M5000, THERMO). The EC50 values were calculated as previously described. EC50 and CC50 data represent the mean of two independent representative assays tested in duplicate and were calculated using sigmoid dose-response curves with Graph–Pad Prism 6.0 software (San Diego, CA, USA).

[3] = test system: T. cruzi amastigotes; details: cited from earlier work
[4] = test system: mammalian cells; design: method as in PMID 31132603; details: cytotoxicity, previous work; cited from earlier work
[5] = intracellular amastigote forms of T. cruzi in BALB/c peritoneal macrophages, 100–1.56 μM
[6] = NCTC clone 929 cells, 48 h, MTT, 200–1.56 μM, read-out: CC50

Molecule	EC50 [2, 5]	CC50 at 48 h [1, 6]	SI (selectivity index) [2]	also measured
O=Cc1c[nH]c2ccccc12 [Compound 2, indole-3-aldehyde]	> 100 µM	–	–	CC50 at 48 h [1]: > 200 µM
Isolinderanolide D	–	–	–	EC50 ([3]; amastigote forms of T. cruzi): 25.3 µM
O=C(O)c1ccc(O)c(O)c1 [protocatechuic acid, reference compound]	–	> 200 µM	–	EC50 [2]: > 100 µM; EC50 ± SD [2, 5]: inactive
COc1cc([C@H]2O[C@@H](c3ccc(O)c(OC)c3)[C@H](C)[C@@H]2C)ccc1O [Compound 12, nectandrin B]	31 ± 0.3 µM	> 200 µM	> 6.4	–
CCCCOC(=O)c1ccc(O)c(O)c1 [Compound 7c]	19.4 ± 6.3 µM	> 200 µM	> 10.3	–
COc1cc2ccc(=O)oc2cc1O [Compound 8, scopoletin]	> 100 µM	> 200 µM	–	–
COc1cc(C2OC(c3ccc(O)c(OC)c3)C(C)C2C)ccc1O (stereo not drawn) [Compound 11, verrucosin]	36.8 ± 4.9 µM	> 200 µM	> 5.4	–
O=C(O)CCCCCCCC(=O)O [Compound 5, azelaic acid]	> 100 µM	> 200 µM	–	–
COc1cc(C(=O)[C@H](CO)c2ccc(O)c(OC)c2)ccc1O [Compound 9, (-)-evofolin B]	27.8 ± 0.2 µM	> 200 µM	> 7.2	–
CCCOC(=O)c1ccc(O)c(O)c1 [Compound 7b]	20.4 ± 4.2 µM	> 200 µM	> 9.8	–
COc1cc(C(=O)O)ccc1O [Compound 6, vanillic acid]	> 100 µM	> 200 µM	–	–
CCCCCOC(=O)c1ccc(O)c(O)c1 [Compound 7d]	12.3 ± 3.8 µM	> 200 µM	> 16.3	–
C=C1OC(=O)/C(=C\CCCCCCCCCCCCCCC)[C@H]1O [isolinderanolide E]	–	–	–	EC50 ([3]; amastigote forms of T. cruzi): 10.1 µM
CCCCCCOC(=O)c1ccc(O)c(O)c1 [Compound 7e]	11.7 ± 2.7 µM	> 200 µM	> 17.1	–
CCCCCCCCOC(=O)c1ccc(O)c(O)c1 [n-octyl ester of protocatechuic acid]	–	–	–	CC50 [4]: 108 µM; EC50 ([3]; T. cruzi amastigotes): 13.9 µM
COc1cc(/C=C/C(=O)NCCc2ccc(O)cc2)ccc1O [Compound 10, moupinamide]	> 100 µM	> 200 µM	–	–
CC1(C)CC(O)CC(C)(O)/C1=C\C(=O)O (stereo not drawn) [Compound 4, 2Z-(2,4-dihydroxy-2,6,6-trimethylcyclohexylidene)acetic acid]	28.2 ± 2.9 µM	–	> 7.1	CC50 at 48 h [1]: > 200 µM
CCCCCCCCOC(=O)c1ccc(O)c(OC)c1 [n-octyl ester of vanillic acid]	–	–	–	EC50 ([3]; T. cruzi amastigotes): 6.8 µM
O=C(Cn1ccnc1[N+](=O)[O-])NCc1ccccc1 [Benznidazole, benznidazole, reference compound]	18.7 ± 4.1 µM	> 200 µM	> 10.7	–
COC(=O)c1ccc(O)c(O)c1 [Compound 7a]	> 100 µM	> 200 µM	–	EC50 ± SD [2, 5]: inactive
CC1=CC(=O)CC(C)(C)[C@@]1(O)/C=C/C(C)=C\C(=O)O [Compound 3, (+)-(S)-abscisic acid]	–	> 200 µM	–	EC50 [2]: > 100 µM
CCOC(=O)c1ccc(O)c(O)c1 [Compound 7, ethyl protocatechuate]	18.1 ± 0.3 µM	> 200 µM	–	–
CCOC(=O)C1CCC(=O)N1 (stereo in doubt) [Compound 1, ethyl (R)-pyroglutamate]	> 100 µM	> 200 µM	–	–
